# In patent US12390626B2, “Method of producing substances with supersaturated gas, transdermal delivery device thereof, and uses thereof” (Circularity Healthcare, LLC, priority 2012, dated 2025):
# Where “and” joins values, the source holds several entries; their conditions need not be identical. Identical values can stand only once.
# Tests used:
# individuals [1] = assay: Measurement of blood pressure: brachial diastolic and systolic, right upper arm, after transdermal CO2 vapor treatment; type: in vivo, human; set-up: Brachial Systolic / Brachial Diastolic: unit not given here; details: for Brachial Diastolic Percent / Brachial Systolic Percent: percent of pre-treatment; for Brachial Diastolic Percent / Brachial Systolic Percent / Brachial Diastolic / Brachial Systolic: per patient
# Method: (§1) The treatment was administered by having an individual insert the left thumb into the open-ended delivery outlet of a device disclosed herein creating a seal. The digit will be “bathed” for five minutes with a vapor including supersaturated dissolved molecular carbon dioxide from a canister providing pure, medical-grade carbon dioxide. Nine individuals were examined.
# To conduct this study, individuals from the study described in Example 1 had there blood pressure taken. A measurement of both brachial diastolic blood pressure and systolic blood pressure was performed on the individual's right upper arm at six time points 1) 5 minutes before treatment (pre-treatment); 2) 5 minutes post-treatment; 3) 30 minutes post-treatment; 4) 60 minutes post-treatment; 5) 120 minutes post-treatment; and 6) 240 minutes post-treatment.
# individuals [2] = assay: Measurement of blood flow: Skin Perfusion Pressure (SensiLase System, laser Doppler) on right toe after transdermal CO2 vapor treatment of left thumb; type: in vivo, human; details: for SPP: right toe
# Method: as §1
# Tissue perfusion in distal arteries was accessed using a SensiLase System (a FDA-cleared device) and measuring Skin Perfusion Pressure (SPP) and Pulse Volume Recording (PVR). SPP is a pressure measurement in mmHg that assess local blood perfusion in capillaries using a laser Doppler to measure reactive hyperemia, which reflects microcirculation for distal arterial blood flow. PVR is a measurement of plethysmography to assess changes in arterial blood volume. A change in capillary blood flow (CBF) is calculated by determining the change in SPP values over time. For this study, the CBF values of all post-treatment measurements were calculated by dividing the post-treatment SPP value by the pre-treatment SPP value. A measurement of SPP was performed on the individual's right toe at six time points 1) 5 minutes before treatment (pre-treatment); 2) 5 minutes post-treatment; 3) 30 minutes post-treatment; 4) 60 minutes post-treatment; 5) 120 minutes post-treatment; and 6) 240 minutes post-treatment.
# [3] = Post Treatment (5 min), right upper arm
# [4] = nine individuals, 5-240 min post-treatment
# [5] = seven of the nine individuals studied
smiles,measurement,setting,value
"O=C=O [molecular carbon dioxide, carbon dioxide]",Brachial Diastolic Percent,individuals [1]; Post Treatment (5 min),98% and 100% and 77% (2×) and 113% and 80% (2×) and 89% and 111%
same,Brachial Systolic Percent,individuals [1]; Post Treatment (5 min),92% (2×) and 94% (2×) and 95% and 79% and 98% and 73% and 80%
same,Brachial Diastolic,individuals [1]; [3],78 and 68 (3×) and 60 (2×) and 72 (2×) and 80
same,Brachial Systolic,individuals [1]; [3],110 (2×) and 132 and 104 and 98 and 124 and 101 and 112 (2×)
same,Brachial Diastolic,individuals [1]; Post Treatment (30 min),70 (3×) and 58 and 62 and 78 and 80 and 52
same,Brachial Systolic,individuals [1]; Post Treatment (30 min),110 and 98 and 100 and 112 (2×) and 118 (3×)
same,Brachial Diastolic Percent,individuals [1]; Post Treatment (30 min),88% and 73% and 103% and 87% (2×) and 100% and 67% and 92%
same,Brachial Systolic Percent,individuals [1]; Post Treatment (30 min),92% and 89% and 96% and 80% and 94% and 81% and 84% and 97%
same,Brachial Diastolic,individuals [1]; Post Treatment (60 min),82 and 70 and 78 (2×) and 60 and 68 and 50 and 72 and 62
same,Brachial Systolic,individuals [1]; Post Treatment (60 min),138 and 118 (2×) and 115 and 150 and 106 and 110 (2×) and 128
same,Brachial Diastolic Percent,individuals [1]; Post Treatment (60 min),108% and 97% and 98% and 88% and 87% (2×) and 83% and 90% and 79%
same,Brachial Systolic Percent,individuals [1]; Post Treatment (60 min),99% and 97% and 96% (2×) and 107% and 106% and 79% and 102% and 86%
same,Brachial Diastolic,individuals [1]; Post Treatment (120 min),68 (2×) and 70 (2×) and 60 and 49 and 62 and 65 and 69
same,Brachial Systolic,individuals [1]; Post Treatment (120 min),120 and 128 and 90 and 127 and 102 and 110 and 111 and 116 and 118
same,Brachial Diastolic Percent,individuals [1]; Post Treatment (120 min),89% and 97% and 75% and 72% (2×) and 79% and 117% and 86% and 87%
same,Brachial Systolic Percent,individuals [1]; Post Treatment (120 min),86% (2×) and 105% and 75% and 91% and 93% and 106% and 79% and 92%
same,Brachial Diastolic,individuals [1]; Post Treatment (240 min),70 and 64 and 59 and 80 and 68 and 58 and 62 and 71 and 69
same,Brachial Systolic,individuals [1]; Post Treatment (240 min),118 (2×) and 108 (2×) and 113 and 140 and 112 (2×) and 117
same,Brachial Diastolic Percent,individuals [1]; Post Treatment (240 min),92% and 89% (2×) and 74% and 118% and 87% and 97% and 69% and 88%
same,Brachial Systolic Percent,individuals [1]; Post Treatment (240 min),84% and 89% and 94% (2×) and 100% and 102% and 104% and 80% and 85%
same,effect on blood pressure,individuals [1]; [4],decreased blood pressure in all individuals examined at some point during the time period measured
same,duration of decrease in diastolic and systolic blood pressure,individuals [1]; [5],decreased diastolic and systolic blood pressure over the course of the entire 240 minute study
same,CBF,"individuals [2]; Post Treatment (5 min), post-treatment SPP / pre-treatment SPP, per patient",124% and 104% and 102% and 87% and 117% and 122% and 109% and 113% and 114%
same,SPP,"individuals [2]; Post Treatment (5 min), one value per patient (1-9), 5 min vapor on left thumb",52 mmHg and 85 mmHg and 84 mmHg and 60 mmHg and 75 mmHg and 89 mmHg and 116 mmHg and 71 mmHg and 132 mmHg
same,CBF,"individuals [2]; Post Treatment (30 min), post/pre-treatment SPP, per patient",124% and 112% and 109% and 91% and 119% and 92% and 106% and 114%
same,SPP,"individuals [2]; Post Treatment (30 min), per patient",54 mmHg and 0 mmHg and 92 mmHg and 75 mmHg and 58 mmHg and 87 mmHg and 97 mmHg and 67 mmHg and 142 mmHg
same,CBF,"individuals [2]; Post Treatment (60 min), post/pre-treatment SPP, per patient",124% (2×) and 102% and 104% and 112% and 84% and 103% and 114% and 134%
same,SPP,"individuals [2]; Post Treatment (60 min), per patient",54 mmHg (2×) and 84 mmHg and 85 mmHg and 77 mmHg and 75 mmHg and 131 mmHg and 72 mmHg and 156 mmHg
same,CBF,"individuals [2]; Post Treatment (120 min), post/pre-treatment SPP, per patient",138% and 135% and 109% and 112% and 125% and 129% and 82% and 106% and 119%
same,SPP,"individuals [2]; Post Treatment (120 min), per patient",58 mmHg and 111 mmHg and 89 mmHg and 77 mmHg and 80 mmHg and 94 mmHg and 87 mmHg and 67 mmHg and 138 mmHg
same,CBF,"individuals [2]; Post Treatment (240 min), post/pre-treatment SPP, per patient",110% and 120% and 135% and 46% and 95% and 104% and 82% and 103% and 115%
same,SPP,"individuals [2]; Post Treatment (240 min), per patient",46 mmHg and 98 mmHg and 111 mmHg and 32 mmHg and 61 mmHg and 76 mmHg and 91 mmHg and 65 mmHg and 133 mmHg
same,increase in capillary blood flow,individuals [2]; four of these (of the seven of nine individuals),≥ 35%
same,effect on blood flow,individuals [2]; [4],increases blood flow in all individuals examined at some point during the time period measured
same,increase in capillary blood flow over baseline,individuals [2]; [5],about 25%
same,duration of increase in capillary blood flow,individuals [2]; six of the nine patients,sustained increases in capillary blood flow over the course of the entire 240 minute study
